Earlier results on four molecules are cited in patent US8440213B2, “Pesticides formulations” (priority 2003, dated 2013).

Molecules are shown by their SMILES. Values after ≈ are worked out from the molar mass of the structure shown.

For this data set the following is noted: in water, at 20° C.
On to `CCOP(=S)(OCC)Oc1nc(Cl)c(Cl)cc1Cl` [Chlorpyriphos], for which the Solubility was 1.4 µg/mL (≈ 3.99 µM).
Regarding `CCOc1ccc(C(C)(C)COCc2cccc(Oc3ccccc3)c2)cc1` [Etofenprox, 2-(4-ethoxyphenyl)-2-methylpropyl 3-phenoxybenzyl ether], the Solubility is less than 0.001 µg/mL.
`COc1nn(CSP(=S)(OC)OC)c(=O)s1` [Methidathion]: the Solubility is 200 µg/mL (≈ 662 µM).
On to `CCCN(CCC)c1c([N+](=O)[O-])cc(C(F)(F)F)cc1[N+](=O)[O-]` [Trifluralin, α,α,α,-trifluoro-2,6-dinitro-N,N-dipropyl-p-toluidine], for which the Solubility is 0.4 µg/mL (≈ 1.19 µM).
